The target in experiment [1] is cloned human P2Y1 receptors (Homo sapiens (Human), UniProt P47900). Description: Binding Assay B: Scintillation Proximity Assay (SPA) for P2Y1 binding. In a few lines:
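Scintillation proximity readout of 0.3 nM [^33P] tracer displacement from receptor membranes (~15 fmol receptor, 1.7 μg protein). Binding ran 1 h at room temperature to completion; plates were then centrifuged and aqueous phase aspirated before counting.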

The test system of experiment [2] is human platelet rich plasma (PRP). Put plainly: ADP induced platelet aggregation assay. As to conditions: Homo sapiens, Platelet, read-out: PA IC50 (μM) @ 10 μM ADP, platelet aggregation induced by 10 μM ADP, human PRP.
[3] abbreviates: SPA, [33P] 2MeS-ADP displacement, read-out: P2Y1 Ki (nM) using binding assay B.

Counter-ions that a name gives are not always drawn. Like-named read-outs stand apart in the source and are kept apart here.

Sequence of cloned human P2Y1 receptors (P47900 whole entry): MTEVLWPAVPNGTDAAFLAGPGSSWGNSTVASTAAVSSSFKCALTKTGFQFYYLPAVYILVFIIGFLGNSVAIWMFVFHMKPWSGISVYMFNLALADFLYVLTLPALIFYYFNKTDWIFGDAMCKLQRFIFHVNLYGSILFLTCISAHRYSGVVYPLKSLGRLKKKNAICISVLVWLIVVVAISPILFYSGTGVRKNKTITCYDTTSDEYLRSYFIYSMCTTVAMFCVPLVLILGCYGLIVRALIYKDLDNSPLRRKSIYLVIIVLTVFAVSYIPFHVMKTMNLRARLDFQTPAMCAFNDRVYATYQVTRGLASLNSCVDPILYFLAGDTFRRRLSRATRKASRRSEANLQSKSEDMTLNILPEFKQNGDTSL

On to `COC(=O)c1ccc(O)c2c1C1(CCN(CC(C)(C)C)CC1)CN2c1ccccc1NC(=O)Nc1ccc(F)cc1F` [Example 78, Methyl 1-(2-(3-(2,4-difluorophenyl)ureido)phenyl)-7-hydroxy-1′-neopentylspiro[indoline-3,4′-piperidine]-4-carboxylate], for which the Ki in experiment [1] (setting [3]) came out at 7.9 nM. The IC50 in experiment [2] stood at 0.7 µM.

As for `COC(=O)c1ccc(O)c2c1C1(CCN(CC(C)(C)C)CC1)CN2c1ccccc1NC(=O)Nc1ccc(OC(F)(F)F)cc1` [Example 79, Methyl 7-hydroxy-1′-neopentyl-1-(2-(3-(4-(trifluoromethoxy)phenyl)ureido)phenyl)-spiro[indoline-3,4′-piperidine]-4-carboxylate], in experiment [1] (setting [3]), the inhibition constant Ki was 9 nM. Besides, the IC50 in experiment [2] was 0.7 µM.

Take `CC(C)CN1CCC2(CC1)CN(c1ccccc1NC(=O)Nc1nc3ccc(Cl)cc3s1)c1c(O)ccc(C#N)c12` [Example 80, 1-(6-Chlorobenzo[d]thiazol-2-yl)-3-(2-(4-cyano-7-hydroxy-1′-isobutylspiro[indoline-3,4′-piperidine]-1-yl)phenyl)urea]: the Ki in experiment [1] (setting [3]) worked out at 14.4 nM. The IC50 in experiment [2] amounted to 0.9 µM.

Regarding `CC(C)(C)CN1CCC2(CC1)CN(c1ccccc1NC(=O)Nc1nc3ccc(F)cc3s1)c1c(O)ccc(C#N)c12` [Example 81, 1-(2-(4-Cyano-7-hydroxy-1′-neopentylspiro[indoline-3,4′-piperidine]-l-yl)phenyl)-3-(6-fluorobenzo[d]thiazol-2-yl) urea, trifluoroacetic acid salt], in experiment [1] (setting [3]), the Ki was found to be 5 nM. The IC50 in experiment [2] came to 0.6 µM.

`CC(C)(C)CN1CCC2(CC1)CN(c1ccccc1NC(=O)Nc1ccc(C(C)(C)C)cc1)c1c(O)ccc(C#N)c12` [Example 82, l-(4-tert-Butylphenyl)-3-(2-(4-cyano-7-hydroxy-1′-neopentylspiro[indoline-3,4′-piperidine]-l-yl)phenyl)urea, trifluoroacetic acid salt]: in experiment [1] (setting [3]), the Ki is 24.8 nM. The 50% inhibitory concentration (IC50) in experiment [2] came out at 1 µM.

Consider `CC(C)(C)CN1CCC2(CC1)CN(c1ccccc1NC(=O)Nc1nc3ccc(Cl)cc3s1)c1c(O)ccc(C#N)c12` [Example 83, l-(6-Chlorobenzo[d]thiazol-2-yl)-3-(2-(4-cyano-7-hydroxy-1′-neopentylspiro[indoline-3,4′-piperidine]-1-yl)phenyl) urea, trifluoroacetic acid salt], for which the Ki in experiment [1] (setting [3]) was 5.7 nM. In experiment [2], the IC50 turned out to be 0.2 µM.

Regarding `Cc1ccc2nc(NC(=O)Nc3ccccc3N3CC4(CCN(CC(C)(C)C)CC4)c4c(C#N)ccc(O)c43)sc2c1` [Example 84, 1-(2-(4-Cyano-7-hydroxy-1′-neopentylspiro[indoline-3,4′-piperidine]-l-yl)phenyl)-3-(6-methylbenzo[d]thiazol-2-yl) urea, trifluoroacetic acid salt], in experiment [1] (setting [3]), the Ki worked out at 11.8 nM. Further, in experiment [2], the IC50 came out at 0.5 µM.

Regarding `CC(C)(C)CN1CCC2(CC1)CN(c1ccccc1NC(=O)Nc1csc(Cl)n1)c1c(O)ccc(C#N)c12` [Example 85, l-(2-Chlorothiazol-4-yl)-3-(2-(4-cyano-7-hydroxy-1′-neopentylspiro[indoline-3,4′-piperidine]-1-yl)phenyl)urea], the inhibitory constant (Ki) in experiment [1] (setting [3]) turned out to be 3.7 nM. For the same compound, the IC50 in experiment [2] is 0.4 µM.

As to `CN(C)S(=O)(=O)c1ccc(O)c2c1C1(CCN(CC(C)(C)C)CC1)CN2c1ccccc1NC(=O)Nc1ccc(OC(F)(F)F)cc1` [Example 89, 7-Hydroxy-N,N-dimethyl-1′-neopentyl-1-(2-(3-(4-(trifluoromethoxy)phenyl)ureido)phenyl)spiro[indoline-3,4′-piperidine]-4-sulfonamide], the inhibitory constant (Ki) in experiment [1] (setting [3]) is 5.3 nM. Further, the IC50 in experiment [2] came to 0.4 µM.

Regarding `CCN(CC)S(=O)(=O)c1ccc(O)c2c1C1(CCN(CC(C)(C)C)CC1)CN2c1ccccc1NC(=O)Nc1ccc(C(C)(C)C)cc1` [Example 90, 1-(2-(3-(4-tert-Butylphenyl)ureido)phenyl)-N,N-diethyl-7-hydroxy-1′-neopentylspiro [indoline-3,4′-piperidine]-4-sulfonamide, trifluoroacetic acid salt], the Ki in experiment [1] (setting [3]) was 3.5 nM. In addition, the IC50 in experiment [2] is 0.2 µM.

For `CCN(CC)S(=O)(=O)c1ccc(O)c2c1C1(CCN(CC(C)(C)C)CC1)CN2c1ccccc1NC(=O)Nc1ccc(OC(F)(F)F)cc1` [Example 91, N,N-Diethyl-7-hydroxy-1′-neopentyl-1-(2-(3-(4-(trifluoromethoxy)phenyl)ureido)phenyl)spiro [indoline-3,4′-piperidine]-4-sulfonamide trifluoroacetic acid salt], the Ki in experiment [1] (setting [3]) is 3.4 nM. Besides, in experiment [2], the half-inhibitory concentration (IC50) is 0.3 µM.

In the case of `CCN(CC)S(=O)(=O)c1ccc(O)c2c1C1(CCN(CC(C)(C)C)CC1)CN2c1ccccc1NC(=O)Nc1nc2ccc(Cl)cc2s1` [Example 92, 1-(2-(3-(6-Chlorobenzo[d]thiazol-2-yl)ureido)phenyl)-N,N-diethyl-7-hydroxy-1′-neopentylspiro[indoline-3,4′-piperidine]-4-sulfonamide], in experiment [1] (setting [3]), the Ki stood at 15.8 nM. Moreover, the IC50 in experiment [2] was 0.5 µM.

Take `CC(C)(C)CN1CCC2(CC1)CN(c1ccccc1NC(=O)Nc1nc3ccc(F)cc3s1)c1c(O)cc(F)c(Cl)c12` [Example 93, 1-(2-(4-Chloro-5-fluoro-7-hydroxy-1′-neopentylspiro [indoline-3,4′-piperidine]-1-yl)phenyl)-3-(6-fluorobenzo[d]thiazol-2-yl)urea]: in experiment [1] (setting [3]), the Ki worked out at 13.5 nM. Further, in experiment [2], the IC50 was determined as 0.5 µM.

As for `CC(C)(C)CN1CCC2(CC1)CN(c1ccccc1NC(=O)Nc1nc3ccc(F)cc3s1)c1c(O)cc(F)c(F)c12` [Example 95, 1-(2-(4,5-Difluoro-7-hydroxy-1′-neopentylspiro [indoline-3,4′-piperidine]-1-yl)phenyl)-3-(6-fluorobenzo[d]thiazol-2-yl)urea], the Ki in experiment [1] (setting [3]) stood at 14.7 nM. The IC50 in experiment [2] came to 0.5 µM.

For the compound `CC(C)(C)CN1CCC2(CC1)CN(c1ccccc1NC(=O)Nc1nc3ccc(Cl)cc3s1)c1c(O)cc(F)c(F)c12` [Example 96, l-(6-Chlorobenzo[d]thiazol-2-yl)-3-(2-(4,5-difluoro-7-hydroxy-1′-neopentylspiro[indoline-3,4′-piperidine]-1-yl)phenyl)urea], in experiment [1] (setting [3]), the Ki amounted to 25.8 nM. In experiment [2], the IC50 was 0.3 µM.

With `Cc1ccc2nc(NC(=O)Nc3ccccc3N3CC4(CCN(CC(C)(C)C)CC4)c4c(Cl)c(F)cc(O)c43)sc2c1` [Example 97, 1-(2-(4-Chloro-5-fluoro-7-hydroxy-1′-neopentylspiro [indoline-3,4′-piperidine]-1-yl)phenyl)-3-(6-melhylbenzo [d]thiazol-2-yl)urea], in experiment [1] (setting [3]), the Ki was 11.5 nM. The IC50 in experiment [2] stood at 0.7 µM.

For `CC(C)(C)CN1CCC2(CC1)CN(c1ccccc1NC(=O)Nc1nc3ccc(Cl)cc3s1)c1c(O)c(F)cc(Cl)c12` [Example 98, 1-(2-(4-Chloro-6-fluoro-7-hydroxy-1′-neopentylspiro [indoline-3,4′-piperidine]-1-yl)phenyl)-3-(6-chlorobenzo [d]thiazol-2-yl)urea], the Ki in experiment [1] (setting [3]) stood at 12.8 nM. Moreover, the half-maximal inhibitory concentration (IC50) in experiment [2] was found to be 0.9 µM.

On to `CC(C)CN1CCCC1c1ccc(NC(=O)Nc2ccccc2N2CC3(CCN(CC(C)(C)C)CC3)c3c(F)cc(F)c(O)c32)cc1` (stereo not drawn) [Example 99, 1-(2-(4,6-Difluoro-7-hydroxy-1′-neopentylspiro [indoline-3,4′-piperidine]-1-yl)phenyl)-3-(4-(1-isobutylpyrrolidin-2-yl)phenyl)urea], for which the inhibition constant Ki in experiment [1] came to 14.2 nM. In experiment [2], the concentration for half-maximal inhibition (IC50) is 1.7 µM.

With `CC(C)(C)CN1CCC2(CC1)CN(c1ccccc1NC(=O)Nc1nc3ccc(F)cc3s1)c1c(O)c(F)cc(Cl)c12` [Example 100, 1-(2-(4-Chloro-6-fluoro-7-hydroxy-1′-neopentylspiro [indoline-3,4′-piperidine]-1-yl)phenyl)-3-(6-fluorobenzo[d]thiazol-2-yl)urea], the inhibition constant Ki in experiment [1] (setting [3]) amounted to 7.9 nM. In addition, the IC50 in experiment [2] is 0.2 µM.

For the compound `CC(C)(C)CN1CCC2(CC1)CN(c1ccccc1NC(=O)Nc1nc3ccc(Cl)nc3s1)c1c(O)cc(F)c(Cl)c12` [Example 101, 1-(2-(4-Chloro-5-fluoro-7-hydroxy-1′-neopentylspiro [indoline-3,4′-piperidin]-1-yl)phenyl)-3-(5-chlorothiazolo[5,4-b]pyridin-2-yl)urea], in experiment [1] (setting [3]), the Ki worked out at 12.2 nM. Moreover, the IC50 in experiment [2] turned out to be 0.9 µM.

For the compound `CC(C)(C)CN1CCC2(CC1)CN(c1ccccc1NC(=O)Nc1nc3ccc(F)nc3s1)c1c(O)cc(F)c(Cl)c12` [Example 102, 1-(2-(4-Chloro-5-fluoro-7-hydroxy-1′-neopentylspiro [indoline-3,4′-piperidin]-1-yl)phenyl)-3-(5-fluorothiazolo [5,4-b]pyridin-2-yl)urea], the Ki in experiment [1] (setting [3]) stood at 12.6 nM. Besides, in experiment [2], the IC50 was determined as 0.6 µM.

`CC(C)CN1CCCC1c1ccc(NC(=O)Nc2ccccc2N2CC3(CCN(CC(C)(C)C)CC3)c3c(F)c(F)cc(O)c32)cc1` (stereo not drawn) [Example 104, 1-(2-(4,5-Difluoro-7-hydroxy-1′-neopentylspiro [indoline-3,4′-piperidine]-1-yl)phenyl)-3-(4-(1-isobutylpyrrolidin-2-yl)phenyl)urea]: the inhibitory constant (Ki) in experiment [1] (setting [3]) was 17 nM. For the same compound, the IC50 in experiment [2] worked out at 1 µM.

As for `CC(C)CN1CCC(c2ccc(NC(=O)Nc3ccccc3N3CC4(CCN(CC(C)(C)C)CC4)c4c(Cl)c(F)cc(O)c43)cc2)CC1` [Example 105, 1-(2-(4-Chloro-5-fluoro-7-hydroxy-1′-neopentylspiro [indoline-3,4′-piperidine]-1-yl)phenyl)-3-(4-(1-isobutylpiperidin-4-yl)phenyl)urea], the Ki in experiment [1] (setting [3]) amounted to 12.7 nM. In experiment [2], the IC50 was determined as 1.1 µM.

In the case of `CC(C)CN1CCC2(CC1)CN(c1ccccc1NC(=O)Nc1ccc(OC(F)(F)F)cc1)c1c(O)ccc(C(F)(F)F)c12` [Example 106, 1-(2-(7-Hydroxy-1′-isobutyl-4-(trifluoromethyl)spiro [indoline-3,4′-piperidine]-1-yl)phenyl)-3-(4-(trifluoromethoxy)phenyl) urea], the Ki in experiment [1] (setting [3]) was determined as 10.6 nM. Further, in experiment [2], the IC50 stood at 0.1 µM.
